Reference: the SangsterLogP compilation

How the values were obtained:
[1] = method code SF, from DOI: 10.1248/cpb.35.4144, PMID: 3435941; conditions: pH 6.8
[2] = method code SF, from DOI: 10.1021/jm00123a006, PMID: 2918500; conditions: pH 7.4
[3] = not given; remark: listed apart in the source
[4] = method code SF-AS, from DOI: 10.1021/jm00170a024, PMID: 2374146
[5] = method code SF-GR, from DOI: 10.1021/jm00199a032, PMID: 619145
[6] = method code SF-RC, from DOI: 10.1002/jlcr.1932; conditions: pH 7.4
[7] = not given; remark: listed apart in the source
[8] = not given; remark: listed apart in the source
[9] = method code SF-AS, from DOI: 10.1213/00000539-199008000-00008, PMID: 2375517
[10] = method code SF-AS, from PMID: 10944786; conditions: pH 7.0
[11] = not given; remark: listed apart in the source
[12] = method code SF, from DOI: 10.1007/bf02222191, PMID: 2473627
[13] = method code SF-RC, from DOI: 10.1021/es00096a007
[14] = not given; remark: listed apart in the source
[15] = method code SF-AS, from DOI: 10.1016/0048-3575(88)90061-2
[16] = method code SF-AS, from DOI: 10.1021/jm00099a010, PMID: 1433194; conditions: pH 7.4
[17] = method code SF-HPLC, from DOI: 10.1002/jps.2600830510, PMID: 8071813
[18] = not given; remark: listed apart in the source
[19] = not given; remark: listed apart in the source
[20] = not given; remark: listed apart in the source
[21] = not given; remark: listed apart in the source
[22] = method code SF-AS, from PMID: 872227; conditions: pH 7.2
[23] = not given; remark: listed apart in the source
[24] = method code SF-HPLC, from PMID: 11745753; conditions: pH 11.0
[25] = not given; remark: listed apart in the source
[26] = method code SF, from DOI: 10.1007/978-94-011-1472-1_81
[27] = not given; remark: listed apart in the source
[28] = method code SF-RC, from DOI: 10.1016/j.ejmech.2016.07.069, PMID: 27565554; conditions: pH 7.4
[29] = method code SF-RC, from DOI: 10.1016/j.bmcl.2015.05.048, PMID: 26073008; conditions: pH 7.4
[30] = not given; remark: listed apart in the source
[31] = from Kyomura, N., Fukuchi, T., Kohyama, Y., & Motojima, S. (1990). Biological characteristics of new acaricide MK-239. In Brighton Crop Protection Conference, Pests and Diseases - 1990 (Vol. 1, pp. …
[32] = method code SF-HPLC, from DOI: 10.1002/jps.2600840622; conditions: pH 7.0
[33] = not given; remark: listed apart in the source
[34] = not given; remark: listed apart in the source
[35] = method code SF-RC, from Godoy, N.; Valle, L.; Mena, P.; Gil, M. (1989). Synthesis, labeling and biodistribution of 99mTc-labelled bromoimino diacetic acids. Nucleotecnica, 9(17)25-32.
[36] = not given; remark: listed apart in the source
[37] = not given; remark: listed apart in the source
[38] = method code SF-AS, from DOI: 10.1248/cpb.39.458, PMID: 1829027; conditions: pH 7.0
[39] = method code SF-AS, from DOI: 10.1002/pauz.19770060602
[40] = not given; remark: listed apart in the source
[41] = method code SF, from DOI: 10.1021/bk-1995-0606.ch008
[42] = not given; remark: listed apart in the source
[43] = method code SF-HPLC, from Liang, J.; Deng, J. (2011). Determination of n-octanol/wanter Partition Coefficient of Mangiferin. West China Journal of Pharmaceutical Sciences, 26(2)193-195.; conditions: pH 2.5
[44] = not given; remark: listed apart in the source
[45] = not given; remark: listed apart in the source

Q: For `CC1N=C2C3CC(c4ccccc4)CCC3C=CN2C1C` (stereo unspecified), which logP is on record?
A: The logP was 3.9.

Q: With `COC(=O)C1=C(C)NC(C)=C(P2(=O)OCCCO2)C1c1ccccc1[N+](=O)[O-]` (stereo unspecified) as the compound, how does the logD [1] read?
A: The logD was 1.3.

Q: Which logD [2] does the source give for `[N-]=[N+]=Nc1ccc(CCN2CCN(c3cccc(C(F)(F)F)c3)CC2)cc1I` here?
A: The logD was 3.33.

Q: Which logP [3] does the source give for `CC[C@@H](c1ccc(O)cc1)[C@H](CCF)c1ccc(O)cc1` here?
A: The logP was 4.03.

Q: For `CCOP(=O)(Cc1ccc(-c2nc3ccccc3s2)cc1)OCC`, which logP [4] is on record?
A: The logP was 3.5.

Q: With `S=P(NN=Cc1ccccn1)(NN=Cc1ccccn1)Oc1ccccc1` as the compound, how does the logP [5] read?
A: Its logP is 1.62.

Q: With `O=C(OCC1=CC(=O)c2ccccc2C1=O)c1ccc(F)cc1` as the compound, how does the logD [6] read?
A: The logD was 2.7.

Q: Which logP [7] does the source give for `CNCCC=C1c2ccccc2CCc2ccccc21` here?
A: The logP was 4.4.

Q: Which logP [8] does the source give for `CCCCCCCCCCCCCCOC(=O)C(C)O` (stereo unspecified) here?
A: The logP was 6.08.

Q: For `CCCN1CCCC[C@H]1C(=O)Nc1c(C)cccc1C`, which logP [9] is on record?
A: Its logP is 2.89.

Q: With `CCCCOc1cccc(NC(=O)OCN2CCCCC2)c1` as the compound, how does the logD [10] read?
A: Its logD is 2.97.

Q: For `CC(C)(C)NCC(COc1nsnc1N1CCOCC1)OC(=O)C1CCC1` (stereo unspecified), which logP [11] is on record?
A: The logP was 2.36.

Q: For `CC(C)NCC(O)COc1ccccc1C1CCCCC1` (stereo unspecified), which logP [12] is on record?
A: Its logP is 2.86.

Q: For `Nc1cc2c3ccccc3ccc2c2ccccc12`, which logP [13] is on record?
A: The logP was 4.98.

Q: With `CC(C)(Oc1ccccc1)C(=O)N[C@@H]1C(=O)N2[C@@H]1SC(C)(C)[C@@H]2C(=O)O` as the compound, how does the logP [14] read?
A: The logP was 2.76.

Q: Which logP [15] does the source give for `O=C(NC(=O)c1c(F)cccc1F)Nc1ccc(Oc2ncc(Cl)cc2Cl)cc1` here?
A: Its logP is 3.27.

Q: For `CN1CCN(Cc2ccc(C(=O)c3csc(S(N)(=O)=O)c3)cc2)CC1`, which logD [16] is on record?
A: The logD was 0.37.

Q: For `O=C(OCCN1CCOCC1)c1ccccc1Nc1c(Cl)cccc1Cl`, which logP [17] is on record?
A: Its logP is 2.72.

Q: For `O=C(O)c1cc(/N=N/c2ccc(S(=O)(=O)Nc3ccccn3)cc2)ccc1O`, which logP [18] is on record?
A: Its logP is -0.13.

Q: Which logP [19] does the source give for `Clc1ccc(COC(Cn2ccnc2)c2ccc(Cl)cc2Cl)c(Cl)c1` (stereo unspecified) here?
A: Its logP is 5.81.

Q: With `COC(=O)c1cc(OC)c2c(c1-c1c(CO)cc(OC)c3c1OCO3)OCO2` as the compound, how does the logP [20] read?
A: The logP was 1.7.

Q: Which logP [21] does the source give for `O=C1/C(=C/c2cccc(Cl)c2)CCCc2ccccc21` here?
A: The logP was 5.22.

Q: For `CCCOc1ccc(NC(=O)OCCN2CCOCC2)c(C)c1`, which logD [22] is on record?
A: The logD was 2.21.

Q: With `COC(=O)C1C2CC3CCC1N3CC2=Cc1ccc(I)c(Cl)c1` (stereo unspecified) as the compound, how does the logP [23] read?
A: The logP was 4.25.

Q: Which logD [24] does the source give for `CCCCN1CCCCC1C(=O)Nc1c(C)cccc1C` (stereo unspecified) here?
A: The logD was 3.35.

Q: Which logP [25] does the source give for `CC12CCC3c4ccc(O)cc4CCC3C1CC(F)C2O` (stereo unspecified) here?
A: The logP was 2.98.

Q: For `Cc1cccc2c1Sc1ccccc1C2NC(=O)CN(C)C` (stereo unspecified), which logP [26] is on record?
A: Its logP is 3.24.

Q: For `COc1ccc2c3c1O[C@H]1[C@@H](O)C=C[C@H]4[C@@H](C2)N(C)CC[C@@]341`, which logP [27] is on record?
A: The logP was 1.22.

Q: For `COc1cc2c(cc1I)C/C(=C\c1ccc(N(C)C)cc1)C2=O`, which logD [28] is on record?
A: Its logD is 3.45.

Q: With `COc1ccc(/C=C/c2cc(=O)c3cc(I)ccc3o2)cc1OC` as the compound, how does the logD [29] read?
A: The logD was 2.14.

Q: Which logP [30] does the source give for `O=C(NN1C(=O)[C@@H]2[C@@H]3C=C[C@@H]([C@H]4C[C@@H]34)[C@@H]2C1=O)c1ccc(C(F)(F)F)cc1` here?
A: Its logP is 2.36.

Q: For `CCc1nn(C)c(C(=O)NCc2ccc(C(C)(C)C)cc2)c1Cl`, which logP [31] is on record?
A: The logP was 4.61.

Q: For `CCN1CCN(c2cc3c(cc2F)c(=O)c(C(=O)O)cn3CC)CC1`, which logD [32] is on record?
A: Its logD is 0.37.

Q: For `CN1CCN2c3ccccc3Cc3ccccc3C2C1` (stereo unspecified), which logP [33] is on record?
A: Its logP is 4.

Q: For `Cc1ccccc1C(OCCN(C)C)c1ccccc1` (stereo unspecified), which logP [34] is on record?
A: Its logP is 3.77.

Q: For `CC(C)c1ccc(Br)c(C(C)C)c1NC(=O)CN(CC(=O)O)CC(=O)O`, which logP [35] is on record?
A: Its logP is 0.2.

Q: For `c1ccc(C2=NOC3COC(c4ccccc4)OCC23)cc1` (stereo unspecified), which logP [36] is on record?
A: The logP was 3.42.

Q: For `O=S(=O)(c1ccc(F)cc1)C1CCN(CCc2ccc(F)cc2F)CC1`, which logP [37] is on record?
A: The logP was 2.47.

Q: With `CCCC(=O)OC[C@H]1O[C@@H](n2cc(F)c(=O)[nH]c2=O)C[C@@H]1OC(=O)CCC` as the compound, how does the logD [38] read?
A: Its logD is 1.9.

Q: With `O=C1CN=C(c2ccccc2)c2cc(Cl)ccc2N1CC1CC1` as the compound, how does the logP [39] read?
A: Its logP is 3.31.

Q: With `CCCCC(CC)COC(=O)c1ccc(N(C)C)cc1` (stereo unspecified) as the compound, how does the logP [40] read?
A: Its logP is 6.6.

Q: With `O=C(Nc1ccc(F)cc1F)c1cccnc1Oc1cccc(C(F)(F)F)c1` as the compound, how does the logP [41] read?
A: The logP was 4.49.

Q: For `COc1c(OC)c(OC(C)=O)c2cc(NC(C)=O)ccc2c1OC(C)=O`, which logP [42] is on record?
A: Its logP is 2.

Q: With `O=c1c2cc(O)c(O)cc2oc2cc(O)c([C@@H]3O[C@H](CO)[C@@H](O)[C@H](O)[C@H]3O)c(O)c12` as the compound, how does the logD [43] read?
A: The logD was 0.36.

Q: Which logP [44] does the source give for `CC1C=COC1C(=O)Nc1cccc(-c2nc3ncccc3o2)c1` (stereo unspecified) here?
A: The logP was 2.9.

Q: Which logP [45] does the source give for `Cc1onc(-c2ccccc2)c1C(=O)NC1C(=O)N2C1SC(C)(C)C2C(=O)O` (stereo unspecified) here?
A: Its logP is 2.34.
